Assay results published in US11352330B2, “Phenoxymethyl derivatives” (Hoffmann-La Roche Inc., priority 2015, dated 2022).

Molecular target: human ATX (Homo sapiens (Human), UniProt Q13822)
Assay: Human ATX enzyme inhibition assay (fluorescence quenching, MR121 substrate)
Type: biochemical
Settings: human His-tagged ATX 30 nM, MR121 substrate 1 μM, 30° C.
Protocol: Human ATX Enzyme Inhibition Assay
ATX inhibition was measured by a fluorescence quenching assay using a specifically labeled substrate analogue (MR121 substrate). To obtain this MR121 substrate, BOC and TBS protected 6-amino-hexanoic acid (R)-3-({2-[3-(2-{2-[2-(2-amino-ethoxy)-ethoxy]-ethoxy}-ethoxy)-propionylamino]-ethoxy}-hydroxy-phosphoryloxy)-2-hydroxy-propyl ester (Ferguson et al., Org Lett 2006, 8 (10), 2023) was labeled with MR121 fluorophore (CAS 185308-24-1, 1-(3-carboxypropyl)-11-ethyl-1,2,3,4,8,9,10,11-octahydro-dipyrido[3,2-b:2′,3′-i]phenoxazin-13-ium) on the free amine of the ethanolamine side and then, after deprotection, subsequently with tryptophan on the side of the aminohexanoic acid.
Assay working solutions were made as follows:
Assay buffer (50 mM Tris-HCl, 140 mM NaCl, 5 mM KCl, 1 mM CaCl2, 1 mM MgCl2, 0.01% Triton-X-100, pH 8.0;
ATX solution: ATX (human His-tagged) stock solution (1.08 mg/mL in 20 mM bicine, pH 8.5, 0.15 M NaCl, 10% glycerol, 0.3% CHAPS, 0.02% NaN3), diluted to 1.4-2.5× final concentration in assay buffer;
MR121 substrate solution: MR121 substrate stock solution (800 μM MR121 substrate in DMSO), diluted to 2-5× final concentration in assay buffer.
Test compounds (10 mM stock in DMSO, 8 μL) were obtained in 384 well sample plates (Corning Costar #3655) and diluted with 8 μL DMSO. Row-wise serial dilutions were made by transferring 8 μL cpd solution to the next row up to row O. The compound and control solutions were mixed five times and 2 μL were transferred to 384 well assay plates (Corning Costar #3702). Then, 15 μL of 41.7 nM ATX solution was added (30 nM final concentration), mixed five times and then incubated for 15 minutes at 30° C. 10 μL of MR121 substrate solution was added (1 μM final concentration), mixed 30 times and then incubated for 15 minutes at 30° C.

Row | IC50 [nM] | SMILES
1 | 25 | CC(C)c1cc2c(cc1OCc1n[nH]c(=O)n1C)C(C)(C)CC2 [Example A3]
2 | 15 | COCC(=O)N1CCc2c(COc3cc(C)c(Cl)cc3C(C)(C)C)n[nH]c2C1 [Example E6, 1-(3-((2-tert-Butyl-4-chloro-5-methylphenoxy)methyl)-4,5-dihydro-1H-pyrazolo[3,4-c]pyridin-6(7H)-yl)-2-methoxyethanone]
3 | 8 | Cn1c(COc2cc(Cl)c(C#N)cc2-c2cc(OC(F)(F)F)ccc2F)n[nH]c1=O [Example B97, 2-chloro-5-[2-fluoro-5-(trifluoromethoxy)phenyl]-4-[(4-methyl-5-oxo-1H-1,2,4-triazol-3-yl)methoxy]benzonitrile]
4 | 14 | Cc1cc(OCc2n[nH]c3nc(N(C)CCO)ncc23)c(C(C)(C)C)cc1Cl [Example D26, 2-[[3-[(2-tert-Butyl-4-chloro-5-methylphenoxy)methyl]-1H-pyrazolo[3,4-d]pyrimidin-6-yl]-methylamino]ethanol]
5 | 10 | Cc1cc(OCc2n[nH]c3ncccc23)c(-c2cc(C(=O)N3CCOCC3)ccc2F)cc1Cl [Example D22]
6 | 93 | CN(C)C(=O)c1cccc(-c2cc(C#N)c(Cl)cc2OCc2n[nH]c(=O)n2C)c1 [Example B39]
7 | 3 | N#Cc1cc(-c2ccccc2)c(OCc2ccc(=O)[nH]n2)cc1Cl [Example C12]
8 | 12 | Cc1cc(OCc2n[nH]c3nc(NCCO)ccc23)c(C(C)(C)C)cc1Cl [Example D7, 2-[[3-[(2-tert-Buty-4-chloro-&-methylphenoxy)methyl]-1H-pyrazolo[3,4-b]pyridin-6-yl]amino]ethanol]
9 | 166 | Cc1cc(OCc2n[nH]c(=O)n2C)c(-c2cccc(C(N)=O)c2)cc1Cl [Example B11]
10 | 6 | Cc1cc(OCc2n[nH]c(=O)n2C)c(-c2cccc(C(=O)Nc3ccccc3)c2)cc1Cl [Example B13]
11 | 958 | Cn1c(COc2cc(C(N)=O)ccc2C(C)(C)C)n[nH]c1=O [Example A25]
12 | 6 | Cn1c(COc2cc(Cl)c(C#N)cc2-c2cc(OC3CC3)ccc2F)n[nH]c1=O [Example B95]
13 | 28 | N#Cc1cc(-c2cc(OC(F)(F)F)ccc2F)c(OCc2n[nH]c3ccncc23)cc1Cl [Example D54]
14 | 9 | Cc1cc(OCc2n[nH]c3nc(NCCO)ncc23)c(C(C)(C)C)cc1Cl [Example D30]
15 | 11 | Cc1cc(OCc2n[nH]c(=O)n2C)c(-c2cc(CN3CC(=O)N(C)CC3=O)ccc2F)cc1Cl [Example B76]
16 | 1 | COc1cccc(-c2cc(C#N)c(Cl)cc2OCc2n[nH]c(=O)n2C)c1F [Example B88]
17 | 4 | Cc1cc(OCc2n[nH]c(=O)n2C)c(-c2cc(C(=O)N(C)CC3CC3)ccc2F)cc1Cl [Example B70]
18 | 8 | Cc1cc(OCc2n[nH]c(=O)n2C)c(C2CCCCC2)cc1Cl [Example A20]
19 | 495 | Cc1cc(OCc2n[nH]c(=O)n2C)c(-c2cnco2)cc1Cl [Example B26]
20 | 8 | N#Cc1cc(-c2cc(OC3CC3)ccc2F)c(OCc2n[nH]c3ncccc23)cc1Cl [Example D53]
21 | 22 | Cc1cc(OCc2ccc(=O)[nH]n2)c(C2CCOCC2)cc1Cl [Example C7, 3-[[4-chloro-5-methyl-2-(oxan-4-yl)phenoxy]methyl]-1H-pyridazin-6-one]
22 | 2 | Cc1cc(OCc2n[nH]c3nc(OCC(O)CO)ncc23)c(C(C)(C)C)cc1Cl (stereo not shown) [Example D34, 3-[[3-[(2-tert-Butyl-4-chloro-5-methylphenoxy)methyl]-1H-pyrazolo[3,4-d]pyrimidin-6-yl]oxy]propane-1,2-diol]
23 | 10 | Cc1cc(OCc2n[nH]c(=O)n2C)c(-c2cc(CNC(=O)C3CC3)ccc2F)cc1Cl [Example B79]
24 | 104 | Cc1nnc(-c2ccc(OCc3n[nH]c(=O)n3C)c(C(C)(C)C)c2)o1 [Example A10]
25 | 10 | Cc1cc(OCc2n[nH]c(=O)n2C)c(-c2cc(OCC3CCOCC3)ccc2F)cc1Cl [Example B72]

Row | IC50 [nM] | SMILES
26 | 7 | N#Cc1cc(-c2cc(C(=O)N3CCCC3)ccc2F)c(OCc2n[nH]c3ncccc23)cc1Cl [Example D43]
27 | 9 | COCCN(C)C(=O)c1ccc(F)c(-c2cc(Cl)c(C)cc2OCc2n[nH]c(=O)n2C)c1 [Example B73]
28 | 17 | CC(=O)N1CCc2c(COc3cc(C)c(Cl)cc3C(C)(C)C)n[nH]c2C1 [Example E5, 1-(3-((2-tert-Butyl-4-chloro-5-methylphenoxy)methyl)-4,5-dihydro-1H-pyrazolo[3,4-c]pyridin-6(7H)-yl)ethanone]
29 | 4 | Cc1cc(OCc2n[nH]c3ncccc23)c(C(C)(C)C)cc1Cl [Example D3, 3-[(2-tert-Butyl-4-chloro-5-methylphenoxy)methyl]-1H-pyrazolo[3,4-b]pyridine]
30 | 913 | Cc1cc(OCc2n[nH]c(=O)n2C)c(-c2cncc(C(N)=O)c2)cc1Cl [Example B20]
31 | 1100 | Cc1cc(OCc2n[nH]c(=O)n2C)c(-c2cccc(C(=O)O)c2)cc1Cl [Example B43, 3-[5-Chloro-4-methyl-2-[(4-methyl-5-oxo-1H-1,2,4-triazol-3-yl)methoxy]phenyl]benzoic acid]
32 | 19 | Cc1cc(OCc2n[nH]c3c2CCNC3)c(C(C)(C)C)cc1Cl [Example E4, 3-((2-tert-Butyl-4-chloro-5-methylphenoxy)methyl)-4,5,6,7-tetrahydro-1H-pyrazolo[3,4-c]pyridine]
33 | 10 | Cc1cc(OCc2n[nH]c(=O)n2C)c(-c2cc(C(=O)N(C)C3CC3)ccc2F)cc1Cl [Example B63]
34 | 69 | COc1ncccc1-c1cc(Cl)c(C)cc1OCc1n[nH]c2c1CCN(C(C)=O)C2 [Example E8, 1-(3-((4-Chloro-2-(2-methoxypyridin-3-yl)-5-methylphenoxy)methyl)-4,5-dihydro-1H-pyrazolo[3,4-c]pyridin-6(7H)-yl)ethanone]
35 | 18 | COCCNC(=O)c1cccc(-c2cc(Cl)c(C)cc2OCc2n[nH]c3ncccc23)c1 [Example D16]
36 | 13 | COC(=O)CCNC(=O)c1cccc(-c2cc(Cl)c(C)cc2OCc2n[nH]c(=O)n2C)c1 [Example B44, Methyl 3-[[3-[5-chloro-4-methyl-2-[(4-methyl-5-oxo-1H-1,2,4-triazol-3-yl)methoxy]phenyl]benzoyl]amino]propanoate]
37 | 7 | COCC(=O)N(C)Cc1ccc(F)c(-c2cc(Cl)c(C)cc2OCc2n[nH]c(=O)n2C)c1 [Example B78]
38 | 12 | Cc1cc(OCc2n[nH]c(=O)n2C(C)C)c(C(C)(C)C)cc1C#N [Example A26, 5-tert-Butyl-2-methyl-4-[(5-oxo-4-propan-2-yl-1H-1,2,4-triazol-3-yl)methoxy]benzonitrile]
39 | 80400 | COCC(=O)N1CCc2[nH]nc(COc3cc(C)c(Cl)cc3C(C)(C)C)c2C1 [Example E3, 1-(3-((2-tert-Butyl-4-chloro-5-methylphenoxy)methyl)-6,7-dihydro-1H-pyrazolo[4,3-c]pyridin-5(4H)-yl)-2-methoxyethanone]
40 | 15 | Cc1cc(OCc2n[nH]c(=O)n2C)c(-c2c(F)ccc3c2oc(=O)n3C)cc1Cl [Example B77]
41 | 3770 | Cn1c(COc2ccc(-c3ncc[nH]3)cc2C(C)(C)C)n[nH]c1=O [Example A32, 3-[[2-tert-butyl-4-(1H-imidazol-2-yl)phenoxy]methyl]-4-methyl-1H-1,2,4-triazol-5-one]
42 | 3 | Cc1cc(OCc2n[nH]c(=O)n2C)c(-c2ccccc2)cc1Cl [Example B1, 3-[(4-Chloro-5-methyl-2-phenylphenoxy)methyl]-4-methyl-1H-1,2,4-triazol-5-one]
43 | 173 | Cc1cc(OCc2n[nH]c(=O)n2C)c(-c2cc(C(=O)O)ccc2C)cc1Cl [Example B50, 3-[5-chloro-4-methyl-2-[(4-methyl-5-oxo-1H-1,2,4-triazol-3-yl)methoxy]phenyl]-4-methylbenzoic acid]
44 | 7 | Cc1cc(OCc2n[nH]c(=O)n2C)c(-c2cc(C(=O)N(C)C3CCCC3)ccc2F)cc1Cl [Example B66]
45 | 32 | COc1ncccc1-c1cc(Cl)c(C)cc1OCc1ccc(=O)[nH]n1 [Example C10]
46 | 5 | Cn1c(COc2cc(Cl)c(C#N)cc2-c2cc(OCC3CCCO3)ccc2F)n[nH]c1=O (stereo not shown) [Example B87]
47 | 28 | Cn1c(COc2cc(C#N)c(Cl)cc2C(C)(C)C)n[nH]c1=O [Example A34, 4-tert-Butyl-2-chloro-5-[(4-methyl-5-oxo-1H-1,2,4-triazol-3-yl)methoxy]benzonitrile]
48 | 9 | Cc1cc(OCc2n[nH]c(=O)n2C)c(-c2cc(C(=O)N3CCCCC3)ccc2F)cc1Cl [Example B69]
49 | 3 | Cc1cc(C(C)C)c(OCc2ccc(=O)[nH]n2)cc1Cl [Example C4, 3-[(5-chloro-4-methyl-2-propan-2-ylphenoxy)methyl]-1H-pyridazin-6-one]
